The target in assay [1] is JAK2 (recombinant purified GST-tagged catalytic domain) (Homo sapiens (Human), UniProt O60674). The experiment in a line: biochemical.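 Further: biochemical JAK kinase assay with HTRF detection.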
Assay [2] concerns the target JAK1 (recombinant purified GST-tagged catalytic domain) (Homo sapiens (Human), UniProt P23458). The experiment in a line: biochemical.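 Further: biochemical assay with HTRF read-out.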

Sequence of JAK1 (recombinant purified GST-tagged catalytic domain) (P23458 875-1153): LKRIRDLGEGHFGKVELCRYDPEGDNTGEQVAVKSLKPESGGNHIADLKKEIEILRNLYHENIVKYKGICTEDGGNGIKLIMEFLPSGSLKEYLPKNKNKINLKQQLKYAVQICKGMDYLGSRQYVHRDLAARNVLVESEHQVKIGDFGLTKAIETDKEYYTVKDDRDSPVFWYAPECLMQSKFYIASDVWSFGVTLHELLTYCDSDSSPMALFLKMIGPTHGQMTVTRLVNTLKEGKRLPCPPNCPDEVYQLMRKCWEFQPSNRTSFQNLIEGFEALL
Sequence of JAK2 (recombinant purified GST-tagged catalytic domain) (O60674 849-1124): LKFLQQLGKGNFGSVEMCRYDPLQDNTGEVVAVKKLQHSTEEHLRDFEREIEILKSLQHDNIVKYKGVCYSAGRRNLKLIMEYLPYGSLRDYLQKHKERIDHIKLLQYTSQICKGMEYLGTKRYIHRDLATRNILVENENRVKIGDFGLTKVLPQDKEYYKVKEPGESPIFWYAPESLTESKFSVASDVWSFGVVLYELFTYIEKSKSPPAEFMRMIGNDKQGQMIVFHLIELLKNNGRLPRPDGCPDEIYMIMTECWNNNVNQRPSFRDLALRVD

Broadly, the IC50 is the concentration that gives 50% inhibition. Turning to `CN[C@H]1CC[C@H](n2cc(C(N)=O)c(Nc3ccc(Cl)cc3)n2)[C@@H](C#N)C1` (single isomer, unassigned) [Example 28-40, 3-[(4-chlorophenyl)amino]-1-[(1S,2S,4S or 1R,2R,4R)-2-cyano-4-(methylamino)cyclohexyl]-1H-pyrazole-4-carboxamide], the IC50 stood at 16 nM in assay [1] and 0.7 nM in assay [2].
With `CN(C)[C@H]1CC[C@H](n2cc(C(N)=O)c(Nc3ccc(Cl)c(F)c3)n2)[C@@H](C#N)C1` (single isomer, unassigned) [Example 28-41, 3-[(4-chloro-3-fluorophenyl)amino]-1-[(1S,2S,4S or 1R,2R,4R)-2-cyano-4-(dimethylamino)cyclohexyl]-1H-pyrazole-4-carboxamide], the IC50 worked out at 58 nM in assay [1] and 2 nM in assay [2].
Regarding `CN[C@@H]1CC[C@H](n2cc(C(N)=O)c(Nc3ccc(Cl)cc3)n2)[C@@H](C#N)C1` (single isomer, unassigned) [Example 28-42, 3-[(4-chlorophenyl)amino]-1-[(1S,2S,4R or 1R,2R,4S)-2-cyano-4-(methylamino)cyclohexyl]-1H-pyrazole-4-carboxamide], the results for the IC50 in assay [1] and in assay [2] were 36 nM and 2 nM, respectively.
The like results for `C[C@H](N[C@@H]1CC[C@H](n2cc(C(N)=O)c(Nc3ccc(Cl)c(F)c3)n2)[C@@H](C#N)C1)C1CC1` (single isomer, unassigned) [Example 28-48, 3-[(4-chloro-3-fluorophenyl)amino]-1-[(1S,2S,4R or 1R,2R,4S)-2-cyano-4-{[(1S or 1R)-1-cyclopropylethyl]amino}cyclo-hexyl]-1H-pyrazole-4-carboxamide] were, in that order, 215 nM and 8 nM.
The like results for `N#C[C@H]1C[C@H](N2CCC2)CC[C@@H]1n1cc(C(N)=O)c(Nc2ccc(C(F)F)nc2)n1` (single isomer, unassigned) [Example 28-50, 1-[(1S,2S,4R or 1R,2R,4S)-4-azetidin-1-yl-2-cyanocyclohexyl]-3-{[6-(difluoromethyl)pyridin-3-yl]amino}-1H-pyrazole-4-carboxamide] were, in that order, 47 nM and 2 nM.
Regarding `CC(C)(C)N[C@@H]1CC[C@H](n2cc(C(N)=O)c(Nc3ccc([C@H](O)C(F)(F)F)cc3)n2)[C@@H](C#N)C1` (single isomer, unassigned) [Example 28-52, 1-[(1S,2S,4R or 1R,2R,4S)-4-(tert-butylamino)-2-cyanocyclohexyl]-3-({4-[(1S or 1R)-2,2,2-trifluoro-1-hydroxyethyl]phenyl}amino)-1H-pyrazole-4-carboxamide], the figures for the IC50 in assay [1] and in assay [2] were 23 nM and 0.4 nM, respectively.
As to `C[C@H](N[C@@H]1CC[C@H](n2cc(C(N)=O)c(Nc3ccc(OC(F)(F)F)cc3)n2)[C@@H](C#N)C1)C1CC1` (single isomer, unassigned) [Example 28-55, 1-[(1S,2S,4R or 1R,2R,4S)-2-cyano-4-{[(1S)-1-cyclopropylethyl]amino}cyclo-hexyl]-3-{[4-(trifluoromethoxy)phenyl]amino}-1H-pyrazole-4-carboxamide], the IC50 in assay [1] came out at 200 nM; in assay [2], 4 nM.
On the same counts, the results for `N#C[C@H]1C[C@@H](N2CCC2)CC[C@@H]1n1cc(C(N)=O)c(Nc2ccc(OC(F)(F)F)cc2)n1` (single isomer, unassigned) [Example 28-58, 1-[(1S,2S,4S or 1R,2R,4R)-4-azetidin-1-yl-2-cyanocyclohexyl]-3-{[4-(trifluoromethoxy)phenyl]amino}-1H-pyrazole-4-carboxamide] are 23 nM and 0.7 nM.
On to `N#C[C@H]1C[C@H](N2CCC2)CC[C@@H]1n1cc(C(N)=O)c(Nc2ccc(OC(F)(F)F)cc2)n1` (single isomer, unassigned) [Example 28-70, 1-[(1S,2S,4R or 1R,2R,4S)-4-azetidin-1-yl-2-cyanocyclohexyl]-3-{[4-(trifluoromethoxy)phenyl]amino}-1H-pyrazole-4-carboxamide], for which the IC50 in assay [1] amounted to 40 nM; in assay [2], 2 nM.
As for `C[C@H](N[C@H]1CC[C@H](n2cc(C(N)=O)c(Nc3ccc(Cl)c(F)c3)n2)[C@@H](C#N)C1)C1CC1` (single isomer, unassigned) [Example 28-71, 3-[(4-chloro-3-fluorophenyl)amino]-1-[(1S,2S,4S or 1R,2R,4R)-2-cyano-4-{[(1S or 1R)-1-cyclopropylethyl]amino}cyclo-hexyl]-1H-pyrazole-4-carboxamide], the IC50 in assay [1] amounted to 97 nM; in assay [2] it was 2 nM.
In the case of `N#C[C@H]1C[C@H](NC2COC2)CC[C@@H]1n1cc(C(N)=O)c(Nc2ccc(CC(F)(F)F)cc2)n1` (single isomer, unassigned) [Example 28-77, 1-[(1S,2S,4R or 1R,2R,4S)-2-cyano-4-(oxetan-3-ylamino)cyclohexyl]-3-{[4-(2,2,2-trifluoroethyl)phenyl]amino}-1H-pyrazole-4-carboxamide], the IC50 in assay [1] was 4 nM; in assay [2] it was 0.7 nM.
On the same counts, the results for `N#C[C@H]1C[C@@H](NC2COC2)CC[C@@H]1n1cc(C(N)=O)c(Nc2ccc(CC(F)(F)F)cc2)n1` (single isomer, unassigned) [Example 28-79, 1-[(1S,2S,4S or 1R,2R,4R)-2-cyano-4-(oxetan-3-ylamino)cyclohexyl]-3-{[4-(2,2,2-trifluoroethyl)phenyl]amino}-1H-pyrazole-4-carboxamide] are 3 nM and 0.3 nM.
The like results for `CC(=O)c1ccc(Nc2nn([C@H]3CC[C@@H](N4CCC4)C[C@@H]3C#N)cc2C(N)=O)cc1` (single isomer, unassigned) [Example 28-83, 3-[(4-acetylphenyl)amino]-1-[(1S,2S,4R or 1R,2R,4S)-4-azetidin-1-yl-2-cyanocyclohexyl]-1H-pyrazole-4-carboxamide] were, in that order, 18 nM and 0.4 nM.
On to `CC(=O)c1ccc(Nc2nn([C@H]3CC[C@H](N4CCC4)C[C@@H]3C#N)cc2C(N)=O)cc1` (single isomer, unassigned) [Example 28-84, 3-[(4-acetylphenyl)amino]-1-[(1S,2S,4S or 1R,2R,4R)-4-azetidin-1-yl-2-cyanocyclohexyl]-1H-pyrazole-4-carboxamide], for which the IC50 in assay [1] came out at 9 nM; in assay [2] it was 0.3 nM.
On the same counts, the results for `N#C[C@H]1C[C@@H](NCC(F)F)CC[C@@H]1n1cc(C(N)=O)c(Nc2ccc(Cl)c(F)c2)n1` (single isomer, unassigned) [Example 28-90, 3-[(4-chloro-3-fluorophenyl)amino]-1-{(1S,2S,4S or 1R,2R,4R)-2-cyano-4-[(2,2-difluoroethyl)amino]cyclohexyl}-1H-pyrazole-4-carboxamide] are 35 nM and 4 nM.
The like results for `C[C@H](N[C@H]1CC[C@H](n2cc(C(N)=O)c(Nc3ccc(OC(F)(F)F)cc3)n2)[C@@H](C#N)C1)C1CC1` (single isomer, unassigned) [Example 28-91, 1-[(1S,2S,4S or 1R,2R,4R)-2-cyano-4-{[(1S)-1-cyclopropylethyl]amino}cyclo-hexyl]-3-{[4-(trifluoromethoxy)phenyl]amino}-1H-pyrazole-4-carboxamide] were, in that order, 65 nM and 1 nM.
In the case of `CC1CN([C@H]2CC[C@H](n3cc(C(N)=O)c(Nc4ccc(Cl)cc4)n3)[C@@H](C#N)C2)C1` (single isomer, unassigned) [Example 28-96, 3-[(4-chlorophenyl)amino]-1-[(1S,2S,4S or 1R,2R,4R)-2-cyano-4-(3-methylazetidin-1-yl)cyclohexyl]-1H-pyrazole-4-carboxamide], the IC50 came to 85 nM in assay [1] and 2 nM in assay [2].
On the same counts, the results for `N#C[C@H]1C[C@@H](NCc2ccccc2)CC[C@@H]1n1cc(C(N)=O)c(Nc2ccnc(F)c2)n1` (single isomer, unassigned) [Example 28-97, 1-[(1S,2S,4S or 1R,2R,4R)-4-(benzylamino)-2-cyanocyclohexyl]-3-[(2-fluoropyridin-4-yl)amino]-1H-pyrazole-4-carboxamide] are 9 nM and 0.3 nM.
With `C[C@H](N[C@@H]1CC[C@H](n2cc(C(N)=O)c(Nc3ccc(Cl)cc3)n2)[C@@H](C#N)C1)C1CC1` (single isomer, unassigned) [Example 28-98, 3-[(4-chlorophenyl)amino]-1-[(1S,2S,4R or 1R,2R,4S)-2-cyano-4-{[(1S)-1-cyclopropylethyl]amino}cyclo-hexyl]-1H-pyrazole-4-carboxamide], the half-inhibitory concentration (IC50) was found to be 216 nM in assay [1] and 4 nM in assay [2].
Turning to `N#C[C@H]1C[C@@H](N2CCC2)CC[C@@H]1n1cc(C(N)=O)c(Nc2ccc(Cl)cc2)n1` (single isomer, unassigned) [Example 28-100, 1-[(1S,2S,4S or 1R,2R,4R)-4-azetidin-1-yl-2-cyanocyclohexyl]-3-[(4-chlorophenyl)amino]-1H-pyrazole-4-carboxamide], the IC50 is 41 nM in assay [1] and 0.7 nM in assay [2].
Regarding `N#C[C@H]1C[C@H](N2CCC2)CC[C@@H]1n1cc(C(N)=O)c(Nc2ccc(Cl)cc2)n1` (single isomer, unassigned) [Example 28-109, 1-[(1S,2S,4R or 1R,2R,4S)-4-azetidin-1-yl-2-cyanocyclohexyl]-3-[(4-chlorophenyl)amino]-1H-pyrazole-4-carboxamide], the IC50 came to 110 nM in assay [1] and 2 nM in assay [2].
Consider `N#C[C@H]1C[C@H](N2CC(F)C2)CC[C@@H]1n1cc(C(N)=O)c(Nc2ccc(S(=O)(=O)C(F)(F)F)cc2)n1` (single isomer, unassigned) [Example 28-112, 1-[(1S,2S,4R or 1R,2R,4S)-2-cyano-4-(3-fluoroazetidin-1-yl)cyclohexyl]-3-({4-[(trifluoro-methyl)sulfonyl]phenyl}amino)-1H-pyrazole-4-carboxamide], for which the IC50 in assay [1] was found to be 6 nM; in assay [2], 0.45 nM.

(Values after US8962608B2, “Cycloalkylnitrile pyrazole carboxamides as janus kinase inhibitors” (Merck Sharp & Dohme Corp., priority 2011, dated 2015).)
